#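 Dose response: 5 concentrations. Exposure: 48 h. Format: 96-well plates. Endpoint: linear interpolation; highest concentration if not reached. TGI marks complete inhibition of growth.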
# How the values were obtained:
# Assay in all cases: DTP human tumour cell line panel, 48 h
# HS 578T breast = test system: HS 578T breast
# RXF 393 renal = test system: RXF 393 renal
# SK-MEL-28 melanoma = test system: SK-MEL-28 melanoma
# SW-620 colon = test system: SW-620 colon
# MDA-N = test system: MDA-N
# SNB-75 CNS = test system: SNB-75 CNS
# SF-295 CNS = test system: SF-295 CNS
# COLO 205 colon = test system: COLO 205 colon
# RPMI-8226 leukemia = test system: RPMI-8226 leukemia
# NCI/ADR-RES ovarian = test system: NCI/ADR-RES ovarian
# CCRF-CEM leukemia = test system: CCRF-CEM leukemia
# IGROV1 ovarian = test system: IGROV1 ovarian
# HOP-92 NSCLC = test system: HOP-92 NSCLC
# K-562 leukemia = test system: K-562 leukemia
# CAKI-1 renal = test system: CAKI-1 renal
# HCT-116 colon = test system: HCT-116 colon
# MDA-MB-435 = test system: MDA-MB-435
# MOLT-4 leukemia = test system: MOLT-4 leukemia
# NCI-H460 lung = test system: NCI-H460 lung
# NCI-H522 lung = test system: NCI-H522 lung
# HCT-15 colon = test system: HCT-15 colon
# OVCAR-5 ovarian = test system: OVCAR-5 ovarian
# A498 renal = test system: A498 renal
# NCI-H226 lung = test system: NCI-H226 lung
# UACC-257 melanoma = test system: UACC-257 melanoma
# OVCAR-3 ovarian = test system: OVCAR-3 ovarian
# PC-3 prostate = test system: PC-3 prostate
# NCI-H23 lung = test system: NCI-H23 lung
# U251 CNS = test system: U251 CNS
# EKVX NSCLC = test system: EKVX NSCLC
# MCF7 breast = test system: MCF7 breast
# SF-539 CNS = test system: SF-539 CNS
# SK-OV-3 ovarian = test system: SK-OV-3 ovarian
# M14 melanoma = test system: M14 melanoma
# SNB-19 CNS = test system: SNB-19 CNS
# MDA-MB-231 breast = test system: MDA-MB-231 breast
# TK-10 renal = test system: TK-10 renal
# T-47D breast = test system: T-47D breast
# LOX IMVI melanoma = test system: LOX IMVI melanoma
# SF-268 CNS = test system: SF-268 CNS
# BT-549 breast = test system: BT-549 breast
# OVCAR-8 ovarian = test system: OVCAR-8 ovarian
# OVCAR-4 ovarian = test system: OVCAR-4 ovarian
# UACC-62 melanoma = test system: UACC-62 melanoma
# HOP-62 NSCLC = test system: HOP-62 NSCLC
# SK-MEL-5 melanoma = test system: SK-MEL-5 melanoma
# SK-MEL-2 melanoma = test system: SK-MEL-2 melanoma
# DU-145 prostate = test system: DU-145 prostate
# SN12C renal = test system: SN12C renal
# UO-31 renal = test system: UO-31 renal
# HT29 colon = test system: HT29 colon
# 786-0 renal = test system: 786-0 renal
# HL-60(TB) leukemia = test system: HL-60(TB) leukemia
# HCC-2998 colon = test system: HCC-2998 colon
# KM12 colon = test system: KM12 colon
# ACHN renal = test system: ACHN renal
# MALME-3M melanoma = test system: MALME-3M melanoma
# A549 NSCLC = test system: A549 NSCLC
smiles,measurement,setting,value
COc1ccc(-c2nc(N3CCCC3)no2)cc1,TGI,HS 578T breast,> 100 µM
same,TGI,RXF 393 renal,> 72.4 µM
same,TGI,SK-MEL-28 melanoma,> 100 µM
same,TGI,SW-620 colon,> 100 µM
same,TGI,MDA-N,> 100 µM
same,TGI,SNB-75 CNS,> 94.8 µM
same,TGI,SF-295 CNS,> 100 µM
same,TGI,COLO 205 colon,> 100 µM
same,TGI,RPMI-8226 leukemia,> 100 µM
same,TGI,NCI/ADR-RES ovarian,> 100 µM
same,TGI,CCRF-CEM leukemia,> 71.5 µM
same,TGI,IGROV1 ovarian,> 100 µM
same,TGI,HOP-92 NSCLC,> 94 µM
same,TGI,K-562 leukemia,> 100 µM
same,TGI,CAKI-1 renal,> 100 µM
same,TGI,HCT-116 colon,> 100 µM
same,TGI,MDA-MB-435,> 100 µM
same,TGI,MOLT-4 leukemia,> 100 µM
same,TGI,NCI-H460 lung,> 100 µM
same,TGI,NCI-H522 lung,> 94.6 µM
same,TGI,HCT-15 colon,> 100 µM
same,TGI,OVCAR-5 ovarian,> 100 µM
same,TGI,A498 renal,> 100 µM
same,TGI,NCI-H226 lung,> 100 µM
same,TGI,UACC-257 melanoma,> 100 µM
same,TGI,OVCAR-3 ovarian,> 100 µM
same,TGI,PC-3 prostate,> 100 µM
same,TGI,NCI-H23 lung,> 100 µM
same,TGI,U251 CNS,> 100 µM
same,TGI,EKVX NSCLC,> 100 µM
same,TGI,MCF7 breast,> 100 µM
same,TGI,SF-539 CNS,> 100 µM
same,TGI,SK-OV-3 ovarian,> 100 µM
same,TGI,M14 melanoma,> 100 µM
same,TGI,SNB-19 CNS,> 100 µM
same,TGI,MDA-MB-231 breast,> 100 µM
same,TGI,TK-10 renal,> 100 µM
same,TGI,T-47D breast,> 100 µM
same,TGI,LOX IMVI melanoma,> 100 µM
same,TGI,SF-268 CNS,> 100 µM
same,TGI,BT-549 breast,> 100 µM
same,TGI,OVCAR-8 ovarian,> 100 µM
same,TGI,OVCAR-4 ovarian,> 100 µM
same,TGI,UACC-62 melanoma,> 100 µM
same,TGI,HOP-62 NSCLC,> 100 µM
same,TGI,SK-MEL-5 melanoma,> 100 µM
same,TGI,SK-MEL-2 melanoma,> 100 µM
same,TGI,DU-145 prostate,> 100 µM
same,TGI,SN12C renal,> 100 µM
same,TGI,UO-31 renal,> 100 µM
same,TGI,HT29 colon,> 100 µM
same,TGI,786-0 renal,> 100 µM
same,TGI,HL-60(TB) leukemia,> 100 µM
same,TGI,HCC-2998 colon,> 100 µM
same,TGI,KM12 colon,> 100 µM
same,TGI,ACHN renal,> 75 µM
same,TGI,MALME-3M melanoma,> 100 µM
same,TGI,A549 NSCLC,> 100 µM
Nc1ncnc2c1ccn2COC(CO)CO,TGI,HS 578T breast,> 100 µM
same,TGI,RXF 393 renal,> 100 µM
same,TGI,SK-MEL-28 melanoma,> 100 µM
same,TGI,SW-620 colon,> 100 µM
same,TGI,MDA-N,> 100 µM
same,TGI,SNB-75 CNS,> 100 µM
same,TGI,SF-295 CNS,> 100 µM
same,TGI,RPMI-8226 leukemia,> 100 µM
same,TGI,NCI/ADR-RES ovarian,> 100 µM
same,TGI,CCRF-CEM leukemia,> 100 µM
same,TGI,IGROV1 ovarian,> 100 µM
same,TGI,HOP-92 NSCLC,> 100 µM
same,TGI,K-562 leukemia,> 100 µM
same,TGI,CAKI-1 renal,> 100 µM
same,TGI,HCT-116 colon,> 100 µM
same,TGI,MDA-MB-435,> 100 µM
same,TGI,MOLT-4 leukemia,> 100 µM
same,TGI,NCI-H460 lung,> 100 µM
same,TGI,NCI-H522 lung,> 100 µM
same,TGI,HCT-15 colon,> 100 µM
same,TGI,OVCAR-5 ovarian,> 100 µM
same,TGI,A498 renal,> 100 µM
same,TGI,NCI-H226 lung,> 100 µM
same,TGI,UACC-257 melanoma,> 100 µM
same,TGI,OVCAR-3 ovarian,> 100 µM
same,TGI,PC-3 prostate,> 100 µM
same,TGI,NCI-H23 lung,> 100 µM
same,TGI,U251 CNS,> 100 µM
same,TGI,EKVX NSCLC,> 100 µM
same,TGI,MCF7 breast,> 100 µM
same,TGI,SF-539 CNS,> 100 µM
same,TGI,SK-OV-3 ovarian,> 100 µM
same,TGI,M14 melanoma,> 100 µM
same,TGI,SNB-19 CNS,> 100 µM
same,TGI,MDA-MB-231 breast,> 100 µM
same,TGI,TK-10 renal,> 100 µM
same,TGI,T-47D breast,> 100 µM
same,TGI,LOX IMVI melanoma,> 100 µM
same,TGI,SF-268 CNS,> 100 µM
same,TGI,BT-549 breast,> 100 µM
same,TGI,OVCAR-8 ovarian,> 100 µM
same,TGI,OVCAR-4 ovarian,> 100 µM
same,TGI,UACC-62 melanoma,> 100 µM
same,TGI,HOP-62 NSCLC,> 100 µM
same,TGI,SK-MEL-5 melanoma,> 100 µM
same,TGI,SK-MEL-2 melanoma,> 100 µM
same,TGI,DU-145 prostate,> 100 µM
same,TGI,SN12C renal,> 100 µM
same,TGI,UO-31 renal,> 100 µM
same,TGI,HT29 colon,> 100 µM
same,TGI,786-0 renal,> 100 µM
same,TGI,HL-60(TB) leukemia,> 100 µM
same,TGI,HCC-2998 colon,> 100 µM
same,TGI,KM12 colon,> 100 µM
same,TGI,ACHN renal,> 100 µM
same,TGI,MALME-3M melanoma,> 100 µM
same,TGI,A549 NSCLC,> 100 µM
O=C(O)C(F)(F)C(F)(F)C(F)(F)C(F)(F)C(F)(F)C(F)(F)C(F)(F)C(F)(F)F,TGI,HS 578T breast,> 100 µM
same,TGI,RXF 393 renal,> 100 µM
same,TGI,SK-MEL-28 melanoma,> 100 µM
same,TGI,SW-620 colon,> 100 µM
same,TGI,MDA-N,> 100 µM
same,TGI,SNB-75 CNS,> 100 µM
same,TGI,SF-295 CNS,> 100 µM
same,TGI,COLO 205 colon,> 100 µM
same,TGI,NCI/ADR-RES ovarian,> 100 µM
same,TGI,CCRF-CEM leukemia,> 100 µM
same,TGI,IGROV1 ovarian,> 100 µM
same,TGI,HOP-92 NSCLC,58.7 µM
same,TGI,K-562 leukemia,92.4 µM
same,TGI,CAKI-1 renal,> 100 µM
same,TGI,HCT-116 colon,> 100 µM
same,TGI,MDA-MB-435,> 100 µM
same,TGI,MOLT-4 leukemia,> 100 µM
same,TGI,NCI-H460 lung,> 100 µM
same,TGI,NCI-H522 lung,> 100 µM
same,TGI,HCT-15 colon,> 100 µM
same,TGI,OVCAR-5 ovarian,> 100 µM
same,TGI,A498 renal,> 100 µM
same,TGI,NCI-H226 lung,> 100 µM
same,TGI,UACC-257 melanoma,> 100 µM
same,TGI,OVCAR-3 ovarian,> 100 µM
same,TGI,PC-3 prostate,> 100 µM
same,TGI,NCI-H23 lung,> 100 µM
same,TGI,U251 CNS,> 100 µM
same,TGI,EKVX NSCLC,> 100 µM
same,TGI,MCF7 breast,> 100 µM
same,TGI,SF-539 CNS,> 100 µM
same,TGI,SK-OV-3 ovarian,86.6 µM
same,TGI,M14 melanoma,> 100 µM
same,TGI,SNB-19 CNS,> 100 µM
same,TGI,MDA-MB-231 breast,> 100 µM
same,TGI,TK-10 renal,> 100 µM
same,TGI,T-47D breast,> 100 µM
same,TGI,LOX IMVI melanoma,> 100 µM
same,TGI,SF-268 CNS,> 100 µM
same,TGI,BT-549 breast,> 100 µM
same,TGI,OVCAR-8 ovarian,> 100 µM
same,TGI,OVCAR-4 ovarian,> 100 µM
same,TGI,UACC-62 melanoma,> 100 µM
same,TGI,HOP-62 NSCLC,> 100 µM
same,TGI,SK-MEL-5 melanoma,> 100 µM
same,TGI,DU-145 prostate,> 100 µM
same,TGI,SN12C renal,> 100 µM
same,TGI,UO-31 renal,> 100 µM
same,TGI,HT29 colon,> 100 µM
same,TGI,786-0 renal,> 100 µM
same,TGI,HL-60(TB) leukemia,62.4 µM
same,TGI,HCC-2998 colon,> 100 µM
same,TGI,KM12 colon,> 100 µM
same,TGI,ACHN renal,> 100 µM
same,TGI,MALME-3M melanoma,> 100 µM
same,TGI,A549 NSCLC,> 100 µM

# Source: PubChem BioAssay (NCI)
